The values below come from paper PMC8329280 (Scientific Reports, 2021).

For orientation: MIC means the lowest concentration that inhibits growth of the organism. The term IC50 denotes the concentration that inhibits the measured activity by half.

One data set relates to Enterobacter cloacae. It counts as cell-based. Here is the method: (§1) The L- and D- forms of Ctl and also the corresponding L- and D-forms of the scramble peptides were tested by Atlangram (Nantes, France) against resistant Gram-negative bacteria (Escherichia coli, Klebsiella pneumoniae, Enterobacter cloacae, Enterobacter aerogenes, Serratia marcescens, Morganella morganii, Pseudomonas aeruginosa), MSSA, MRSA and yeast (C. albicans). The MICs were determined according to the CASFM/EUCAST 2018 (Comité de l’Antibiogramme de la Société Française de Microbiologie).

The test system of a further data set is Morganella morganii. Format: cell-based. Here is the method:
as §1

A further data set relates to Pseudomonas aeruginosa. Format: cell-based. Here is the method:
as §1

The next data set deals with Candida albicans. It counts as cell-based. Here is the method:
as §1

Another data set has as its system Serratia marcescens. It counts as cell-based. Here is the method:
as §1

In data set [1] the test system is human gingival fibroblast (HGF-1). Conditions: cited from earlier work.
For data set [2], the system named is proteases produced by Staphylococcus aureus. Conditions: cited from earlier work. An excerpt:
In particular, CgA is an acidic glyco-phospho-protein stored in secretory vesicles of numerous nervous, neuroendocrine and immune cells. […] In a ...

Data set [3] deals with methicillin sensitive S. aureus (MSSA, strain 49775). Format: cell-based, Staphylococcus aureus. Here is the method: (§2) Antibacterial assays were realized to the method previously reported[22],[25]. S. aureus strains were pre-cultured for 20 h in aerobic conditions at 37 °C in Mueller–Hinton Broth (MHB) medium (Becton–Dickinson Microbiology Company, Sparks, USA) (pH 7.4). Bacteria were suspended at absorbance of 0.001 at 620 nm in the MHB medium. Antibacterial activity was tested for 24 h incubation at 37 °C with shaking by measuring the inhibition of bacterial growth. Ten µl of final volumes (10–200 µg/mL) of synthetic peptides were incubated in microtitration plates with 90 µl of a mid-logarithmic phase culture of bacteria, with a starting absorbance of 0.001 at 620 nm. A mixture of Tetracycline (10 mg/L) and Cefotaxime (0.1 mg/L) were used as positive controls. Microbial growth was assessed by the increase of absorbance after 24 h incubation at 37 °C. The A620 nm value of control cultures growing in the absence of peptide and antibiotics was defined as 100% growth. A620 nm value with the antibiotics (Tetracycline and Cefotaxime) was taken as 100% inhibition. Absence of bacterial growth was verified by agar plate spreading. Each assay was performed in triplicates. Data were shown as mean + /− standard deviation of three independent experiments; p < 0.05.

Data set [4] concerns human intestinal epithelial cell (caco-2). Conditions: cited from earlier work.
A further data set has as its system MSSA. It counts as cell-based, Staphylococcus aureus. Here is the method: as §1
Another data set relates to MRSA. Format: cell-based, Staphylococcus aureus. Here is the method: as §1
The next data set deals with Klebsiella pneumoniae. Format: cell-based. On the procedure:
as §1

The next data set relates to Enterobacter aerogenes. Format: cell-based. Here is the method: as §1
Another data set relates to Escherichia coli. It counts as cell-based. Here is the method: as §1
The test system of the next data set is Citrobacter freundii. It counts as cell-based.
Data set [5] concerns the target Endoprotease Glu-C from S. aureus V8 (E.C. 3.4.21.19) (Staphylococcus aureus, UniProt P0C1U8). Conditions: 50 mM Tris–HCl pH 8.2, 37 °C, enzyme added for 4 h then same amount for 18 h; RP-HPLC, optical density at 214 nm. On the procedure:
Endoprotease Glu-C from S. aureus V8 (E.C. 3.4.21.19) was provided from Sigma Aldrich (Saint Louis, USA). Digestion of DOPA5T-Ctl (12.5 µg) by endoprotease Glu-C (Sigma-Aldrich Chemie Saint Quentin Fallavier, France) (3.5 µg) was obtained for 18 h at 37 °C in 50 mM Tris–HCl pH 8.2 or PBS[28]. Enzyme (1.75 µg) was added for a digestion of 4 h and then the same amount was added for 18 h. The enzymatic digestion was stopped by addition of 25 µL of 0.1% (vol/vol) TFA in milliQ water. The fragments resulting from enzymatic digestion were isolated with a RP-HPLC with a Dionex HPLC system on a Vydac 208 TP C8 column (3 × 250 mm), and identified by Maldi-tof mass spectrometry, as previously reported for the characterization of the synthetic peptides.

The next data set concerns S. aureus 25923 (MSSA). Format: cell-based, Staphylococcus aureus. Conditions: 25923, 24 h. Here is the method: as §2
In another data set the test system is S. aureus V8. It counts as cell-based, Staphylococcus aureus. Conditions: V8, 24 h. Here is the method: as §2

Non-standard residues stand in square brackets, D forms with d. Residues, ends and D or L forms follow the SMILES beside them. No end group written: not given here. Dopa = N[C@@H](Cc1ccc(O)c(O)c1)C(=O)O Bounds are passed on as bounds.

Endoprotease Glu-C from S. aureus V8 (E.C. 3.4.21.19), sequence (P0C1U8 69-336): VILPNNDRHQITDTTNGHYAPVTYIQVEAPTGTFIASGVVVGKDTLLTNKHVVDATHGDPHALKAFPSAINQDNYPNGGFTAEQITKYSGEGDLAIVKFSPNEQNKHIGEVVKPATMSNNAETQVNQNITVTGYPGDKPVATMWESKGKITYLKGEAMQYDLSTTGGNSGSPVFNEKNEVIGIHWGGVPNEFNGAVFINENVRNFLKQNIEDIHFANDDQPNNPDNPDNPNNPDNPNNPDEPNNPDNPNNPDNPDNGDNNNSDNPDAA

As for RSMRLSFRARGYGFR [Ctl, Cateslytin], the MIC is more than 128 µg/mL against Enterobacter cloacae; more than 128 µg/mL against Morganella morganii; more than 128 µg/mL in the data set on Pseudomonas aeruginosa; 512 µg/mL in the data set with Candida albicans; more than 128 µg/mL against Serratia marcescens; more than 128 µg/mL in the data set with MSSA. Further, the MIC in the data set with MRSA is more than 128 µg/mL. The “toxicity for HGF-1” value in data set [1] is listed as “not toxic”. In [2], the “degradation by the proteases produced by Staphylococcus aureus” value is given as “resistant to degradation”. The “MIC MSSA” value in [3] (methicillin sensitive (, strain 49775, 20 h)) came out at 93.0 µg/mL. Further, the “toxicity for caco-2” value in data set [4] was “not toxic”.
In the case of “FMRLRYRSSAFGGRR [Control L, reference compound]”, the MIC was more than 128 µg/mL in the data set on Klebsiella pneumoniae; more than 128 µg/mL in the data set with Enterobacter cloacae; more than 128 µg/mL with Enterobacter aerogenes; more than 128 µg/mL against Morganella morganii; more than 128 µg/mL against Pseudomonas aeruginosa; 512 µg/mL against Candida albicans. Moreover, the MIC in the data set on Serratia marcescens, against Escherichia coli, against Citrobacter freundii, against MSSA and against MRSA was more than 128 µg/mL each time.
As for `CSCC[C@H](NC(=O)[C@H](CO)NC(=O)[C@H](CCCNC(=N)N)NC(=O)[C@H](CCC(=O)O)NC(=O)CNC(=O)CNC(=O)[C@H](CCCNC(=N)N)NC(=O)[C@H](CC(C)C)NC(=O)[C@@H](NC(=O)[C@H](Cc1ccc(O)c(O)c1)NC(=O)[C@H](CCCCN)NC(=O)[C@H](Cc1ccc(O)c(O)c1)NC(=O)[C@H](CCCCN)NC(=O)[C@@H](N)Cc1ccc(O)c(O)c1)[C@@H](C)O)C(=O)N[C@@H](CCCNC(=N)N)C(=O)N[C@@H](CC(C)C)C(=O)N[C@@H](CO)C(=O)N[C@@H](Cc1ccccc1)C(=O)N[C@@H](CCCNC(=N)N)C(=O)N[C@@H](C)C(=O)N[C@@H](CCCNC(=N)N)C(=O)NCC(=O)N[C@@H](Cc1ccc(O)cc1)C(=O)NCC(=O)N[C@@H](Cc1ccccc1)C(=O)N[C@@H](CCCNC(=N)N)C(=O)O` [DOPA5T-Ctl] (H-[Dopa]K[Dopa]K[Dopa]TLRGGERSMRLSFRARGYGFR-OH), the “Ctl and its oxidized form released after Glu-C digestion” value in data set [5] worked out at 76%. Also, the “proteolysis by Glu-C endoprotease” value in data set [5] is “full proteolysis”. The IC50 with S. aureus 25923 (MSSA) is 20 µM; in data set [3] (methicillin sensitive (, strain 49775, 24 h)), 45 µM; in the data set on S. aureus V8 it was 65 µM.
